Results: patent US10758522B2, “Small molecule analogs of the nemo binding peptide” (THE SCRIPPS RESEARCH INSTITUTE, priority 2015, dated 2020)

Columns and labels:
[1] = test system: NF-κB; experiment: EMSA of NF-κB DNA binding in skeletal muscle of mdx mice after acute treatment; format: in vivo, mouse; conditions: single ip injection at 10 mg/kg, 1 and 2 hours post-treatment
Protocol: We also tested the compounds for their ability to inhibit NF-κB activity acutely in a murine model of disease. For these experiments, a mouse model of Duchenne muscular dystrophy, which has elevated NF-κB activity in muscle, was treated with Zinc-13 (NBDA-1) and Zinc-5 (NBDA-2) and the level of NF-κB activity determined by gel shift analysis at 1 and 2 hours post-treatment.
(§1) To confirm that the NBD mimetics reduce IKK activity, the extent of phosphorylation of the IKK target, IκBα, in response to 10 ng/ml of TNF-α was determined by Western blot at 0, 5 and 10 min after TNF-α stimulation. […] To determine if the mimetics also reduce NF-κB DNA binding activity, electrophoretic mobility shift assay (EMSA) was conducted both in vivo and in vitro.
(§2) Cytoplasmic and nuclear fractions were extracted using the NE-PER nuclear and cytoplasmic extraction reagents (ThermoFisher) according to the manufacturer's instructions. The gel shift assay was performed by following the previously described method (41). In brief, 5 μg of nuclear extract was incubated with gel shift binding buffer and an α-^32P-deoxycytodine triphosphate-radiolabeled NF-κB probe for 20 min at room temperature (MP Biomedicals). The oligonucleotide sequences are as follows: NF-κB template, 5′-[…]-3′; NF-κB annealing, 5′-[…]-3′. The reaction product was separated on a 6% non-denaturing polyacrylamide gel.

[2] = test system: NF-κB; experiment: EMSA of NF-κB DNA binding in C2C12 cells; format: cell-based, mouse; conditions: 200 μM
Protocol: as §1, §2

[3] = test system: p-IκBα; experiment: Western blot of IκBα phosphorylation after TNF-α; format: cell-based; conditions: 10 ng/ml TNF-α, 0, 5 and 10 min; 100 μM compound
Protocol: as §1
HEK293 cells grown in a 6-well plate at 1×10^6 cells/well were left untreated or treated with 100 μM of ZINC12909780 or ZINC3369392 for 30 min, followed by 10 ng/ml of TNFα for 0, 5 and 10 min. Cells were then harvested for western blot. Cell lysate was prepared in RIPA buffer (20 mM Tris-HCl (pH 7.5), 150 mM NaCl, 1 mM Na^2EDTA, 1 mM EGTA, 1% NP-40, 1% sodium deoxycholate, 2.5 mM sodium pyrophosphate, 1 mM beta-glycerophosphate, 1 mM Na3VO4, 1 μg/ml leupeptin, 1× protease inhibitor cocktails (sigma) and 1× Halt phosphatase inhibitor cocktail (Thermo)). 30 ug of protein was resolved by MINI-PROTEAN TGX 4-15% SDS-PAGE. Blots were blocked in 5% non-fat milk. Primary antibodies were incubated at 4° C. overnight and secondary antibodies were incubated at room temperature for 1 hour. Anti-p-IκBα (1:1000 CST) and anti-IκBα (1:2000 CST) were used to assess NF-κB activation. Anti-GAPDH (1:5000 CST) was used as a loading control.

[4] = Degradation in the presence of serum; format: in vitro ADME; conditions: data not shown
[5] = test system: NF-κB; experiment: Firefly luciferase NF-κB reporter assay in TNF-α-stimulated HEK293 cells; format: cell-based; conditions: for inhibition of TNF-α-induced NF-κB activation (luciferase reporter), in words: 293 NF-κB luciferase reporter cells, 10 ng/ml TNF-α, compound 12909780 at 100 μM
Protocol: This model was used to screen a subset of the drug-like ZINC 8.0 database set (˜900,000 compounds) (Irwin et al., 2005). We were able to identify 161 hits that matched at least 6 features out of eight of the pharmacophore model. […] Two compounds termed NBDA-1 (Zinc-13) and NBDA-2 (Zinc-5), successfully passed these filters (See FIG. 4) and were purchased for biological testing. The compounds were then tested for ability to inhibit TNF-alpha-mediated induction of NF-κB activity in a 293 cells stably modified with a NF-κB luciferase reporter.
The activation of NF-κB was then quantitated by measuring the level of luciferase activity. […] Also, protein extracts were prepared from the same cells and the level of phospho-IkB determined, a marker of IKK activity.
To test if the small molecules identified by the in silico screen inhibit NF-κB activation, a HEK293 cell line stably expressing a luciferase reporter driven by a synthetic, NF-κB-dependent promoter was utilized. To induce NF-κB activation, cells were treated with 10 ng/ml of TNF-α and harvested three hours post-treatment for analysis of luciferase activity. […] To determine if compound 12909780 inhibited NF-κB in a dose dependent manner, concentrations were tested at 0, 6.25, 25, 50 and 100 μM.
HEK293 cells stably transfected with luciferase reporter plasmid driven by NF-κB were seeded in 96-well plate in triplicate and pretreated with DMSO or varying small molecules at indicated concentration for 30 min, followed by the stimulation of 10 ng/ml of TNFα for 3 hr. Cell were washed with PBS once and harvested in passive lysis buffer. Luciferase assay (Promega) was performed using a luminometer according to the manufacturer's instructions.

[6] = test system: HEK293 cells; experiment: MTT cell viability assay; format: cell-based
Protocol: To identify NBD mimetics with higher biological activity than compound 12909780 or the NBD peptide, we next screened the ZINC 10.0 database (approximately 3.5 million compounds) in silico for structurally similar compounds (24).
Cell viability was calculated by normalizing values to untreated control.

[7] = test system: mdx mice; experiment: Chronic treatment of mdx mice (Duchenne muscular dystrophy model); format: in vivo, mouse; conditions: chronic treatment with the ZINC compounds
Description: Mdx mice develop normally at birth, and then undergo a massive myonecrosis starting at three weeks. Treatment of mdx mice with IKK/NF-kB inhibitors effectively reduces inflammation, block necrosis and increase muscle regeneration. Mdx mice were chronically treated with vehicle, SR12343, SR12460 or 8K-NBD starting from day 21, 3 times/week for 4 weeks. […] To determine if SR12343 and SR12460 improve muscle pathology, tibialis anterior (TA) muscle was stained with hematoxylin and eosin (H&E) to assess inflammatory infiltration, necrosis, central nucleation and fibrosis. […] Fiber size in centrally nucleated and non-centrally nucleated myofibers was also smaller in mice treated with SR12343 and 8K-NBD, indicating active reconstruction of myofiber during the regenerative phase.
To determine muscle strength post-treatment, grip strength test on forelimbs was performed 2 weeks and 4 weeks post-treatment.
HEK293 cells were grown in Dulbecco's Modification of Eagles Medium (with 4.5 g/L glucose and L-glutamine), supplemented with 10% fetal bovine serum, penicillin and streptomycin. Raw264.7 cells were cultured in RPMI-1640 media containing 10% heat-inactivated fetal bovine serum, penicillin and streptomycin. C57BL/10ScSn-Dmd^mdx/J and female C57BL/6 mice were purchased from the Jackson Laboratory. Mice were housed in the animal facilities of Scripps Fla. under constant temperature and humidity. Animal protocols used in this study were approved by Scripps Fla. Institutional Animal Care and Use Committees. Three week-old sex-matched mdx mice were dosed with SR12343 (30 mg/kg), […] (30 mg/kg), 8K-NBD peptide (10 mg/kg) or vehicle by intraperitoneal (i.p.) injection 3 times per week for 4 weeks. Mice were sacrificed at 7 weeks of age by carbon dioxide inhalation and tibialis anterior was collected for histological analysis.
Seven week-old treated or untreated mdx mice were measured for forelimb grip strength using a digital grip strength meter paired with a metal grid (Bioseb). Mice were allowed to grip the metal grid tightly and readings were obtained by gently pulling the tail backward until release. Five sequential measurements were performed and the average force was calculated.
Tissues fixed in 10% neutral buffered formalin (NBF) overnight were imbedded in paraffin. Tissue was sectioned at […] using a microtome. H&E staining was conducted following a standard protocol (REF).

[8] = target: T1, IKK complex (IKKß, IKKα and NEMO) (Homo sapiens, UniProt Q9Y6K9); experiment: Co-immunoprecipitation of NEMO with IKKß in 293 cells; format: cell-based; conditions: Zinc-5 at 4 hours, Zinc-13 at 1 hour, NBD peptide at 4 hours
T1 construct: analyzed by Western blot for the level of co-precipitated NEMO; endogenous in cells; host or cells: 293 (HEK293) cells
T1 sequence (Q9Y6K9 whole entry, one chain of several): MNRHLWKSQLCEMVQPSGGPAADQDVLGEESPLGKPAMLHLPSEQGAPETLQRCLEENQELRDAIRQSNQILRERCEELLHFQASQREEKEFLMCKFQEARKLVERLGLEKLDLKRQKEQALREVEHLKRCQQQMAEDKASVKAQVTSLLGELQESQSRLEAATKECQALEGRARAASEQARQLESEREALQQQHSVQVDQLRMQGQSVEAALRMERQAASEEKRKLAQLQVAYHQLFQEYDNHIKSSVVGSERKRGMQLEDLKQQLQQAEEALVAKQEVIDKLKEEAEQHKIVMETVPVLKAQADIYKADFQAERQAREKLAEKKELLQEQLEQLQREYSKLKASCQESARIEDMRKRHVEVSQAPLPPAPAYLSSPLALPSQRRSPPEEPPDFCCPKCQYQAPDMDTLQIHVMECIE
Description: FIG. 8 is a bar graph showing the inhibition of TNFα by NBDA-1 (Zinc-13). […] In addition, we have examined the ability of the compounds to disrupt the IKK complex, comprised of IKKß, IKKα and NEMO.
A non-functional, related compound Zinc-7 had no effect.

For `O=C(COC(=O)Cc1ccccc1F)Nc1ccc(Cl)cn1` [ZINC5, 2-(2-fluorophenyl)acetic-acid-[2-[(5-chloro-2-pyridyl)amino]-2-keto-ethyl]-ester], the “NF-κB DNA binding activity in quadriceps of mdx mice” value ([1]; 10 mg/kg) was “inhibited NF-κB DNA binding activity in quadriceps”, the “NF-κB DNA binding activity in quadriceps of mdx mice” value ([1]; listed as Zinc-5, 10 mg/kg) was “reduced NF-κB DNA binding activity in the skeletal muscle (quadricep)” and the “TNFα-induced NF-κB DNA binding activity (EMSA)” value [2] was “significantly decreased TNFα-induced NF-κB DNA binding activity”. The “level of phospho-IκBα / phosphorylation of IkB” value [3] was “reduced the level of p-IκBα dramatically”, the “degradation in the presence of serum” value [4] was “rapid degradation in the presence of serum” and the “dose-dependent inhibition of TNF-α-induced NF-κB activation, in words” value ([5]; 0, 6.25, 25, 50 and 100 μM) was “greater extent of inhibitory effect compared to compound 12909780”. The “inhibition of TNF-α-induced NF-κB activation (luciferase reporter), in words” value ([5]; listed as Zinc5) was “lowered NF-κB activity robustly”, the “inhibition of TNF-α-induced NF-κB activation (luciferase reporter), in words” value ([5]; listed as Zinc-5) was “able to inhibit TNF-alpha mediated activation of NF-κB, as or more efficiently as the NBD peptide” and the “cell death / toxicity (MTT assay)” value ([6]; HEK293, 24 hours) was “less than 10%”. The “cell toxicity, in words” value ([6]; at 50 and 100 μM) was “no cell toxicity observed”, the “therapeutic benefit of chronic treatment of mdx mice” value [7] was “showed no therapeutic benefit” and the “level of NEMO co-immunoprecipitated with IKKß” value [8] was “reduced the level of co-immunoprecipitated NEMO”.
